The text below walks through data of patent publication US5798357A, “Agent for prophylaxis and treatment of thromboxane A2 -mediated diseases” (The Green Cross Corporation, priority 1994, dated 1998).

What is called LD50 is the dose expected to kill half of the subjects tested.

Data set [1] deals with T1, TXA2 synthetase (Homo sapiens, UniProt P24557).
T1 construct: human platelet microsome was used; from tissue; host or cells: human blood platelets, microsomal fraction
T1 sequence (P24557 1-533): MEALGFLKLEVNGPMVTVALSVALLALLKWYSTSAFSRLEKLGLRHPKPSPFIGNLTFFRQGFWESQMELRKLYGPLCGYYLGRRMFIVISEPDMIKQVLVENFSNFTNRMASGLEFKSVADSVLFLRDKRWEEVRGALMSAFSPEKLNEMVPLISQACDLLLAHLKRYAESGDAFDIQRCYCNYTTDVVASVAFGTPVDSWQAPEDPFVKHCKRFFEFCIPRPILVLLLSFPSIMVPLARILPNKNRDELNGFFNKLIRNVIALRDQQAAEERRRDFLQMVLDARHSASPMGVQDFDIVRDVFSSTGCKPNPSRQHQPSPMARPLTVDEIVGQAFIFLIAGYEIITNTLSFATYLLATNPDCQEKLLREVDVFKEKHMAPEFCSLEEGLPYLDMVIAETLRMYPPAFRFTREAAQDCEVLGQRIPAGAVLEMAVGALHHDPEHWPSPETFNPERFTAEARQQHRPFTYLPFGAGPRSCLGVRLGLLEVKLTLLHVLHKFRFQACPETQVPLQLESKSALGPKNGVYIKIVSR
In words: inhibition of TXA2 synthetase by the use of human platelet microsome. It is filed as biochemical. Particulars: read-out: IC50 (amount necessary to inhibit 50% of TXA2 synthesis) of TXA2 synthetase inhibitory action. Here is the method:
The TXA2 amount in the above Experimental Examples was measured as TXB2 (stable compound thereof) amount by the EIA method using TXB2 assay kit (manufactured by Amersham). inhibition of TXA2 synthetase by the use of human platelet microsome In the same manner as in Experimental Example 2 except that human platelet microsome was used instead of rabbit platelet microsome, the experiment was performed. Compound A, Compound B and Compound C were used as reagents.

For another data set, the system named is rabbit platelets. Kind of data set: TXA2 release from rabbit platelets. The format is cell-based. Particulars: Oryctolagus cuniculus, Platelet, 8 min, washed rabbit platelets, 37° C., read-out: TXA2 release suppressing action: amount necessary for 50% inhibition of TXA2 release. How it is done:
TXA2 release from rabbit platelets Blood was taken from the carotid artery of normal rabbit using ethylenediaminetetraacetic acid (EDTA; 77 mM EDTA, 1/10 vol). The blood was centrifuged at 1800 rpm for 8 minutes and platelet rich plasma in the supernatant was recovered, which was then centrifuged at 3200 rpm for 8 minutes. The sediment (platelet) was washed with Tyrode-HEPES-EDTA buffer and centrifuged at 3200 rpm for 8 minutes. The sediment was suspended in Tyrode-HEPES buffer to prepare washed platelets (5×10^8 platelets/ml). 100% DMSO or a reagent (Compound A, 1.5 μl) was added to the washed platelets (270 μl) and the mixture was heated at 37° C. for 2 minutes. Then, collagen (10 μg/ml) and 1 mM Ca^2+ (or 1 mM Ca^2+ alone when investigating release from unstimulated platelets) were added and the experiment was started. After heating at 37° C. for 8 minutes, 10^-3 M indomethacin was added and the cuvette was placed in ice to stop the reaction. After centrifugation at 10,000 rpm for 10 minutes, the supernatant was taken and stored at -20° C. until used for the TXA2 determination. The TXA2 amount in the above Experimental Examples was measured as TXB2 (stable compound thereof) amount by the EIA method using TXB2 assay kit (manufactured by Amersham). | *1: amount necessary for 50% inhibition of TXA2 release (μM)

The target in data set [2] is T2, TXA2 synthetase (Oryctolagus cuniculus, UniProt G1TAZ9).
T2 construct: to prepare a microsomal fraction; from tissue; host or cells: rabbit blood platelets, microsomal fraction
T2 sequence (G1TAZ9 1-530): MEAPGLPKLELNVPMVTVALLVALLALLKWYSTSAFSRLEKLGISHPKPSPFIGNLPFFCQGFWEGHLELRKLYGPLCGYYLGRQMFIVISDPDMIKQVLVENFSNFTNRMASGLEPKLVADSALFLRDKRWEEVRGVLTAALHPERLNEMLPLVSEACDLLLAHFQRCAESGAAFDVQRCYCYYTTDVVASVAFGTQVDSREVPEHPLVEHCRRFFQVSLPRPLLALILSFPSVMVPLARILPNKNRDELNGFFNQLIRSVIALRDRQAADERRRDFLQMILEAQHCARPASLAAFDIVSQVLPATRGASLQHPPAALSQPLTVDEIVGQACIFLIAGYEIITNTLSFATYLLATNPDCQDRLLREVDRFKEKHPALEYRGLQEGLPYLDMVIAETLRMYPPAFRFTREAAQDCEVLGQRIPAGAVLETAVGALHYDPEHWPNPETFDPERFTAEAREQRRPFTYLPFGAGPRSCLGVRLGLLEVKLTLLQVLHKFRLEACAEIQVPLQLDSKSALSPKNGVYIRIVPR
In words: Inhibition of TXA2 synthetase using rabbit platelet microsome. The format is biochemical. Particulars: PGH2 5 nmol, 22° C., 3 minutes, measured as TXB2 by EIA, read-out: TXA2 synthetase inhibitory action: amount necessary for 50% inhibition of TXA2 synthesis. How it is done:
Inhibition of TXA2 synthetase using rabbit platelet microsome
Blood was taken from the carotid artery of normal rabbit, using EDTA (77 mM EDTA, 1/10 vol). The blood was centrifuged at 1300 rpm for 10 minutes and platelet rich plasma in the supernatant was recovered, which was centrifuged at 3400 rpm for 15 minutes. The sediment was washed with physiological saline (original volume) and centrifuged at 3400 rpm for 15 minutes. Then, 0.05M Tris-HCl buffer (1 mM EDTA, pH 7.5, 3-fold weight of the wet weight of platelets) was added to the sediment and the mixture was homogenated (2 minutes, full speed) using polytron. The homogenate was centrifuged at 8300 rpm for 15 minutes (Tomy RD-20III, No. 3N) and the supernatant was centrifuged at […] for 1 hour (Beckman TL-100, TLA100.3). The sediment was suspended in 0.05M Tris-HCl buffer (1 mM EDTA, pH 7.5, one-third weight of the wet weight of platelets) to prepare a microsomal fraction. The fraction was stored at -80° C. until used for the experiment.
0.05M Tris-HCl buffer (pH 7.5, 890 μl), 100 μl of the above-mentionedmicrosome (85 μg protein) and 100% DMSO or the reagent (Compound A, 5 μl) were added and the mixture was preincubated at 22° C. for 3 minutes. […]
The TXA2 amount in the above Experimental Examples was measured as TXB2 (stable compound thereof) amount by the EIA method using TXB2 assay kit (manufactured by Amersham). […]

A further data set is described as follows: acute toxicity in rats. The following applies: rat, in vivo, po, orally administered.
The nature of a further data set: acute toxicity in dogs. The following applies: dog, in vivo, po, orally administered.

Counter-ions that a name gives are not always drawn. Like-named read-outs stand apart in the source and are kept apart here.

Turning to `O=c1[nH]nc(OCC[C@@H](O)c2ccc(Cl)cc2)c(NCc2cccnc2)c1Br` [Compound C, 4-bromo-6-[(3R)-(4-chlorophenyl)-3-hydroxypropoxy]-5-(3-pyridylmethylamino)-3(2H)-pyridazinone hydrochloride], the IC50 on TXA2 synthetase [1] came to 30 nM.

In the case of `Cl.O=c1[nH]nc(OCCCc2ccc(Cl)cc2)c(NCc2cccnc2)c1Br` [Compound A, 4-bromo-6-[3-(4-chlorophenyl)propoxy]-5-(3-pyridylmethylamino)-3(2H)-pyridazinone hydrochloride], the IC50 is 1000 nM in the data set on rabbit platelets (not stimulated, 1 mM Ca2+ alone); 9 nM in the data set on rabbit platelets (stimulated with collagen (10 μg/ml), 1 mM Ca2+); 18 nM on TXA2 synthetase [2]; 10 nM at TXA2 synthetase [1]. In addition, the 50% lethal dose (LD50) in the data set “acute toxicity in rats” and in “acute toxicity in dogs” was no less than 2000 mg/kg each time.

Take `O=c1[nH]nc(OCC[C@H](O)c2ccc(Cl)cc2)c(NCc2cccnc2)c1Br` [Compound B, 4-bromo-6-[(3S)-(4-chlorophenyl)-3-hydroxypropoxy]-5-(3-pyridylmethylamino)-3(2H)-pyridazinone hydrochloride]: the IC50 on TXA2 synthetase [1] worked out at 20 nM.
